Experimental data as given in patent US20020032187A1, “Method for stimulating bone formation” (SmithKline Beecham Corporation, priority 1996, published 2002).
Like-named read-outs stand apart in the source and are kept apart here. No end group written: not given here.

Key:
ROS 17/2.8 osteoblasts = settings: for increase over the basal level of osteocalcin: 48 hr incubation, Vitamin D3 at 10 nM, internal controls
Experimental: Cell culture: ROS 17/2.8 osteoblasts were routinely cultured in Ham's F-12 medium containing 5% FBS, 25 rmM HEPES (pH 7.4), 1.1 mM CaCl2, penicillin (10 U/ml) and streptomycin (10 ug/ml). The cells were subcultured twice a week using 0.04% trypsin containing 5 mM EDTA to detach the cells.
For the assay, 30,000 cells were plated per well in 24-well multidishes in 0.5 ml of HAM's F-12 medium containing 1% FBS and allowed to adhere for 3-4 hr at 37° C. in a humidified incubator with 5% CO2. Increasing concentrations of test compounds ([…]) were then added to the wells (duplicate cultures per concentration tested) and the incubation continued for an additional 48 hr. At the end of the incubation, cultures supernatants were removed and assayed for osteocalcin levels using a rat RIA as per the manufacturer's instructions. The lower limit of detection in this assay was 0.3 ng/ml. In every experiment, Vitamin D3 (10 nM) and the peptide cyclo[Arg-Gly-Asp-D-Phe-Val] were tested as an internal controls. […] Activity for each compound was expressed as the EC50 from the dose-response curve.

MC3T3-E1 osteoblasts = assay: Mineralization of MC3T3 osteoblasts; format: cell-based, murine; settings: 25 uM
Experimental: Mineralization of MC3T3 osteoblasts
To characterize the temporal sequence of osteoblast differentiation, 30,000 cells were plated/well in 24-well multidishes and grown for periods ranging from 3-26 days in a-MEM medium (GIBCO) containing 10% fetal bovine serum (V/V), penicillin (100 U/ml) and streptomycin (100 ug/ml), with or without supplementation with 5 mM β-glycerophosphate and 100 uM ascorbic acid in the presence or absence of RGD compounds.
Mineralization of cells was assessed by calcium isotope accumulation. Cells were incubated for 48 h in medium containing 0.5 uCi/mi of ^45CaCl2 at various time points after seeding. Subsequently, the monolayers were washed twice with PBS using 1 ml/wash. Cells were harvested and digested in 0.1 N NaOH and aliquots were counted by liquid scintillation counting using a Beckman 5500 scintillation counter.
Calcified nodules in actively mineralizing cultures were visualized by staining cell monolayers with Alizarin-Red-S (Sigma Chemical Co, St Louis, Mo.). Cell cultures were washed twice with PBS, fixed for 10 min in 50 percent ethanol, rehydrated with 1 ml of distilled water for 5 min and then stained for 1-3 min with 200 uL of 1 percent Alizarin Red S (aqueous). The monolayers were then washed extensively and very carefully using 1 ml H2O per wash. Calcified nodules which appeared a bright red color were identified by light microscopy.
To monitor the differentiation of cells to the mature osteoblast type, alkaline phosphatase activity was determined in cell lysates using the colorimetric assay. Cells were washed twice with PBS using 1 ml/wash. Subsequently, the monolayers were transferred to ice and cells lysed in 0.2 ml of 0.1% TX-100. […] The reactions were stopped with the addition of 100 uL of ice cold 0.25 N NaOH to each reaction and absorbance was read at 410 nm. […] Alkaline phosphatase activity was calculated as umol of substrate (p-nitrophenol) released/mg protein/min.
Osteocalcin levels in the supernatants were determined at various time points during the assay using a mouse RIA as per the manufacturers instructions. […]

Molecule | stimulates release of osteocalcin (in words) (ROS 17/2.8 osteoblasts) | increase over the basal level of osteocalcin (ROS 17/2.8 osteoblasts) | also measured
Gly-Arc-Gly-Asp-Ser-OH (GRGDS-OH) | stimulate the release of osteocalcin |  | 
Benzyl-(N-methyl)Arg-Gly-Asp-NH-(2 or 4 chloro)Ph | stimulate the release of osteocalcin |  | 
C=C1CC[C@H](O)C/C1=C/C=C1\CCC[C@]2(C)[C@@H]([C@H](C)CCCC(C)C)CC[C@@H]12 [Vitamin D3] |  | two to three fold increase | 
CC(C)[C@@H]1NC(=O)[C@@H](Cc2ccccc2)NC(=O)[C@H](CC(=O)O)NC(=O)CNC(=O)[C@H](CCCNC(=N)N)NC1=O [cyclo[Arg-Gly-Asp-D-Phe-Val]] | stimulate the release of osteocalcin | two to three fold increase | EC50 (ROS 17/2.8 osteoblasts; 48 h): 0.74 µM; stimulates release of osteocalcin (in words) (ROS 17/2.8 osteoblasts; listed as cyclo(Arg-Gly-Asp-D-Phe-Val)): osteocalcin-releasing; 45Ca uptake (MC3T3-E1 osteoblasts): increased calcium uptake; alkaline phosphatase activity (MC3T3-E1 osteoblasts): enhanced alkaline phosphatase activity; calcification nodules upon Alizarin-Red staining (MC3T3-E1 osteoblasts): showed calcification nodules upon Alzirin staining
Benzyl-(N-methyl)Arg-Gly-Asp-NHPh | stimulate the release of osteocalcin |  | 
CN1Cc2cc(C(=O)NCc3nc4ccccc4[nH]3)ccc2NC(CC(=O)O)C1=O (racemic) [7-[(((2-benzimidazolyl)methyl)amino)carbonyl]-2,3,4,5-tetrahydro4-methyl-3-oxo-1H-1,4-benzodiazepine-2-acetic acid] | osteocalcin-releasing |  | 
